Laboratory results: PMC7139904, “Structural Requirements of Benzofuran Derivatives Dehydro-δ- and Dehydro-ε-Viniferin for Antimicrobial Activity Against the Foodborne Pathogen Listeria monocytogenes” (International Journal of Molecular Sciences, 2020)
≈ marks a conversion by molar mass, not a printed value. Entries after “also recorded” stand apart in the source; their conditions may differ. Where two headings read alike, the source gives them in different places. Marks after values point to notes of the source that are not given here.

How the values were obtained:
L. monocytogenes Scott A = assay: Minimal inhibitory concentration (MIC) and minimal bactericidal concentration (MBC), 96-well plate broth assay; assay type: cell-based, Listeria monocytogenes; conditions: for MBC: value in brackets
Method: All synthesized derivatives were stored in dry form at -20 °C and dissolved in DMSO at a final concentration of 4.096 mg/mL prior to their use in the MIC and MBC determination. Briefly, L. monocytogenes was cultivated in Brain […] Infusion (BHI) broth (Sigma, Italy) at 37 °C for 24 h under a shaking condition (200 rpm). After the growth, the cells were diluted in BHI to 0.2 OD 600 nm and then used for the 96-well plate inoculum. The concentrations tested ranged from 1 up to 512 μg/mL. The assay was carried out in triplicate in a 96-well plate, according to Mattio et al., 2019 [4].

[1] = Cytotoxicity, growth inhibition assay (MTS) on normal skin fibroblasts; assay type: cell-based, human; conditions: human, WS1 normal skin fibroblast cells; WS1 IC50 (µM) compared with MIC (µM) on L. monocytogenes Scott A; read-out: Selectivity: concentration with cytotoxic effects on WS1 relative to MIC against L. monocytogenes
Method: (§1) The normal human skin WS1 fibroblast cells (ATCC CRL-1502) were cultured in Eagle’s Minimum Essential Medium plus 10% fetal bovine serum at 37 °C and 5% CO2. Cytotoxic potency was assessed by a growth inhibition assay (CellTiter 96® AQueous One Solution Cell Proliferation Assay MTS, Promega). The cells were seeded in a 96-well plate, and 24 h later were exposed to the compounds (concentration range 1−200 μM). After 48 h of exposure, 20 μL of 3-(4,5-dimethylthiazol-2-yl)-5-(3-carboxymethoxyphenyl)-2-(4-sulfophenyl)-2H-tetrazolium salt was added to each well. The absorbance was measured using a FLUOstar OPTIMA plate reader (BMG Labtech GmbH, Offenburg, Germany) at 492 nm after 4 h of incubation at 37 °C in 5% CO2. The IC50 was defined as the drug concentration causing 50% cell growth inhibition, determined by the dose−response curves. Experiments were performed in triplicate.

WS1 fibroblast cells = assay: as above; assay type: cell-based, human; conditions: for IC50: WS1 cells, 48 h exposure, MTS assay, mean ± SD of three independent experiments; for Selectivity: concentration with cytotoxic effects on WS1 relative to MIC against L. monocytogenes: WS1 IC50 (µM) compared with MIC (µM) on L. monocytogenes Scott A
Method: as §1

[2] = tested on: L. monocytogenes LMG 16,779; design: method as in PMID 26867522; conditions: cited from earlier work
[3] = Listeria monocytogenes, BHI broth, tested 1 up to 512 µg/mL, triplicate, read-out: MIC
[4] = Listeria monocytogenes, MIC as µM concentration, read-out: MIC
[5] = Listeria monocytogenes, tested 1 up to 512 µg/mL, triplicate, read-out: MBC
[6] = Listeria monocytogenes, 24 h, BHI broth, tested 1 up to 512 µg/mL, triplicate, read-out: MIC
[7] = BHI broth, tested 1 up to 512 µg/mL, triplicate
[8] = MIC as µM concentration, read-out: MIC
[9] = tested 1 up to 512 µg/mL, triplicate

`[H]/N=C(\N/C(=N/[H])NCCCCCCNC(=N)NC(=N)Nc1ccc(Cl)cc1)Nc1ccc(Cl)cc1` [Chlorhexidine, reference compound] gave an MIC (L. monocytogenes Scott A; [3]) of 8 µg/mL, an MIC (L. monocytogenes Scott A; [4]) of 15.8 µM and an MBC (L. monocytogenes Scott A; [5]) of 32 µg/mL (≈ 63.3 µM).

In the case of `Oc1ccc(-c2oc3ccc(/C=C/c4cc(O)cc(O)c4)cc3c2-c2cc(O)cc(O)c2)cc1` [Compound 1, dehydro-δ-viniferin], the selectivity ratio at 48 h [1] is reported as about 10, the IC50 (WS1 fibroblast cells; Homo sapiens, WS1, 48 h) is reported as 37 ± 1.4 µM and the MIC (L. monocytogenes Scott A; [6]) is reported as 2 µg/mL. For the same compound, the MIC (L. monocytogenes Scott A; [3]) was 2 µg/mL, the MIC (L. monocytogenes Scott A; [4]) was 4.42 µM and the MBC (L. monocytogenes Scott A; [5]) was 16 µg/mL (≈ 35.4 µM).

In the case of `Oc1ccc(/C=C/c2cc(O)cc3oc(-c4ccc(O)cc4)c(-c4cc(O)cc(O)c4)c23)cc1` [Compound 2, viniferifuran], the IC50 (WS1 fibroblast cells; Homo sapiens, WS1, 48 h) is reported as 33 ± 1.4 µM, the MIC (L. monocytogenes Scott A; [6]) is reported as 16 µg/mL and the MIC (L. monocytogenes Scott A; [3]) is reported as 16 µg/mL. It also gave an MIC (L. monocytogenes Scott A; [4]) of 35.4 µM and an MBC (L. monocytogenes Scott A; [5]) of over 512 µg/mL.

With `Oc1ccc(-c2oc3ccccc3c2-c2cc(O)cc(O)c2)cc1` [Compound 3] the IC50 (WS1 fibroblast cells; Homo sapiens, WS1, 48 h) was 98.7 ± 1.8 µM, the “Selectivity: concentration with cytotoxic effects on WS1 relative to MIC against L. monocytogenes” value (WS1 fibroblast cells) was “two-fold higher; also recorded: at least two-times higher” and the MIC (L. monocytogenes Scott A; [6]) was 16 µg/mL. For the same compound, the MIC (L. monocytogenes Scott A; [3]) was 16 µg/mL, the MIC (L. monocytogenes Scott A; [4]) was 50.3 µM and the MBC (L. monocytogenes Scott A; [5]) was 64 µg/mL (≈ 201 µM).

With `Oc1ccc(-c2cc3cc(/C=C/c4cc(O)cc(O)c4)ccc3o2)cc1` [Compound 4] the IC50 (WS1 fibroblast cells; Homo sapiens, WS1, 48 h) was 97.8 ± 3 µM, the “Antimicrobial activity, result in words” value (L. monocytogenes Scott A) was “completely inactive” and the MIC (L. monocytogenes Scott A; [6]) was 256 µg/mL. For the same compound, the MIC (L. monocytogenes Scott A; [3]) was 256 µg/mL, the MIC (L. monocytogenes Scott A; [4]) was 743 µM and the MBC (L. monocytogenes Scott A; [5]) was over 512 µg/mL.

For `Oc1cc(O)cc(/C=C/c2ccc3occ(-c4cc(O)cc(O)c4)c3c2)c1` [Compound 5], the IC50 (WS1 fibroblast cells; Homo sapiens, WS1, 48 h) was 96.8 ± 4.5 µM, the “Selectivity: concentration with cytotoxic effects on WS1 relative to MIC against L. monocytogenes” value (WS1 fibroblast cells) was “two-fold higher; also recorded: at least two-times higher” and the MIC (L. monocytogenes Scott A; [3]) was 16 µg/mL. It also gave an MIC (L. monocytogenes Scott A; [4]) of 44.4 µM and an MBC (L. monocytogenes Scott A; [5]) of 64 µg/mL (≈ 178 µM).

`Oc1ccc(-c2oc3cc(O)ccc3c2-c2cc(O)cc(O)c2)cc1` [Compound 6] showed an IC50 (WS1 fibroblast cells; Homo sapiens, WS1, 48 h) of 98.5 ± 2 µM, an MIC (L. monocytogenes Scott A; [6]) of 64 µg/mL and an MIC (L. monocytogenes Scott A; [3]) of 64 µg/mL. It also gave an MIC (L. monocytogenes Scott A; [4]) of 191 µM and an MBC (L. monocytogenes Scott A; [5]) of over 512 µg/mL.

With `Oc1ccc(/C=C/c2cc(O)cc3occ(-c4cc(O)cc(O)c4)c23)cc1` [Compound 7] the IC50 (WS1 fibroblast cells; Homo sapiens, WS1, 48 h) was 45 ± 1.2 µM, the “Selectivity: concentration with cytotoxic effects on WS1 relative to MIC against L. monocytogenes” value (WS1 fibroblast cells) was “two-fold higher; also recorded: at least two-times higher” and the MIC (L. monocytogenes Scott A; [7]) was 8 µg/mL. For the same compound, the MIC (L. monocytogenes Scott A; [8]) was 23.2 µM and the MBC (L. monocytogenes Scott A; [9]) was 64 µg/mL (≈ 178 µM).

In the case of `Oc1ccc(/C=C/c2cc(O)cc3occ(-c4cc(O)cc(O)c4)c23)cc1` [Compound 8], the IC50 (WS1 fibroblast cells) is reported as 85 ± 4.6 µM, the MIC (L. monocytogenes Scott A; [7]) is reported as 64 µg/mL and the MIC (L. monocytogenes Scott A; [8]) is reported as 178 µM. It also gave an MBC (L. monocytogenes Scott A; [9]) of over 512 µg/mL.

For `COc1cc(/C=C/c2ccc3oc(-c4ccc(O)cc4)cc3c2)cc(OC)c1` [Compound 9], the IC50 (WS1 fibroblast cells; Homo sapiens, WS1, 48 h) was 95 ± 2.3 µM, the “Antimicrobial activity, result in words” value (L. monocytogenes Scott A) was “inactive” and the MIC (L. monocytogenes Scott A; [6]) was over 512 µg/mL. For the same compound, the MIC (L. monocytogenes Scott A; [3]) was over 512 µg/mL, the MIC (L. monocytogenes Scott A; [4]) was 1370 µM and the MBC (L. monocytogenes Scott A; [5]) was over 512 µg/mL. For the same compound, the MBC (L. monocytogenes Scott A; [9]) was >512 (>512) µg/mL.

In the case of `COc1ccc(-c2cc3cc(/C=C/c4cc(OC)cc(OC)c4)ccc3o2)cc1` [Compound 10], the IC50 (WS1 fibroblast cells; Homo sapiens, WS1, 48 h) is reported as over 100 µM, the “Antimicrobial activity, result in words” value (L. monocytogenes Scott A) is reported as “inactive” and the MIC (L. monocytogenes Scott A; [3]) is reported as over 256 µg/mL. The MIC (L. monocytogenes Scott A; [4]) was 662 µM and the MBC (L. monocytogenes Scott A; [5]) was over 256 µg/mL.

For `COc1ccc(-c2oc3cc(OC)ccc3c2-c2cc(OC)cc(OC)c2)cc1` [Compound 11], the IC50 (WS1 fibroblast cells; Homo sapiens, WS1, 48 h) was over 100 µM, the “Antimicrobial activity, result in words” value (L. monocytogenes Scott A) was “inactive” and the MIC (L. monocytogenes Scott A; [3]) was over 256 µg/mL. For the same compound, the MIC (L. monocytogenes Scott A; [4]) was 656 µM and the MBC (L. monocytogenes Scott A; [5]) was over 256 µg/mL.

Compound `COc1cc(/C=C/c2ccc(O)cc2)cc(OC)c1` [pterostilbene, reference compound] has an IC50 (WS1 fibroblast cells; Homo sapiens, WS1, 48 h) of 57 ± 10 µM, an MIC (L. monocytogenes Scott A; [6]) of 64 µg/mL and an MIC (L. monocytogenes Scott A; [3]) of 64 µg/mL. The MIC (L. monocytogenes Scott A; [4]) was 250 µM and the MBC (L. monocytogenes Scott A; [5]) was 128 µg/mL (≈ 499 µM).

In the case of `Oc1ccc(/C=C/c2cc(O)cc(O)c2)cc1` [resveratrol], the IC50 (WS1 fibroblast cells; Homo sapiens, WS1, 48 h) is listed as over 200 µM, the “MIC” value ([2]; MIC as µM concentration) is listed as 876 µM (≈ 200 µg/mL) and the MIC [2] is listed as 200 (-) ^c µg/mL.
